Laboratory results reported in US9757415B2, “Composition comprising solanum glaucophyllum for preventing and/or treating hypocalcaemia and for stabilizing blood calcium levels” (HERBONIS AG, priority 2009, dated 2017).

How the values were obtained:
[1] = tested on: cows; test: In vivo experiment, single oral bolus in cows: serum calcium and phosphate
Text: The control group only received pectin.

[2] = in vivo; settings: female, brown, Fleckvieh and Holstein, cow, serum, po, 500 ng
Protocol: Twenty-five cows of the races brown, Fleckvieh and Holstein of a weight of approximately 500-600 kg weight and including lactating and non-lactating subjects were allocated to 5 treatment groups as detailed in Table 6 blow. The animals were given a single dose of the test preparation orally per bolus. Blood was taken at time 0 (before application) and at days 1, 2, 3, 4, 5, 7, 9 and 11 following application. From the blood, serum was prepared and calcium (total), phosphate and 1,25-(OH)2 vitamin D3 was analyzed according to established clinico-chemical methods.
Treatment: all test preparations were applied to the animal as one single bolus in a gelatine capsule (length 7 cm, diameter 2.2 cm and volume 24 mL, Capsula GmbH, Ratingen, Germany) with the aid of a usual bolus applicator. The volume that was not filled with tablets was filled up with pectin as inert excipient. The control group only received pectin.
The boluses contained, in accordance with the treatment group, instant release tablets as described in Example 3 (groups 2 and 4) and retard release tablets as prepared in Example 4 (groups 1 and 4).

[3] = day 0 (before application), n = 5, single oral bolus
[4] = day 2, n = 5, single oral bolus
[5] = day 3, n = 5, single oral bolus
[6] = day 4, n = 5, single oral bolus
[7] = day 5, n = 5, single oral bolus
[8] = day 7, n = 5, single oral bolus
[9] = day 9, n = 5, single oral bolus
[10] = day 11, n = 5, single oral bolus

concentration at 0 day [2]: 0.02 ng/mL
concentration at 1 day [2]: 0.243 ng/mL
concentration at 2 day [2]: 0.15 ng/mL
concentration at 3 day [2]: 0.056 ng/mL
concentration at 4 day [2]: 0.04 ng/mL
concentration at 5 day [2]: 0.046 ng/mL
concentration at 7 day [2]: 0.03 ng/mL
concentration at 9 day [2]: 0.023 ng/mL
concentration at 11 day [2]: 0.025 ng/mL
Structure (SMILES): C=C1/C(=C\C=C2/CCC[C@]3(C)[C@@H]([C@H](C)CCCC(C)(C)O)CC[C@@H]23)C[C@@H](O)C[C@@H]1O [Group 3, 1,25-dihydroxyvitamin D3]
Serum calcium (mean ± standard deviation) [1, 3]: 2.40 ± 0.2 ^ mmol/L
Serum phosphate (mean ± standard deviation) [1, 3]: 2.30 ± 0.07 mmol/L
Serum calcium (mean ± standard deviation) ([1]; day 1, n = 5, single oral bolus): 2.64 ± 0.05 E mmol/L
Serum calcium (mean ± standard deviation) [1, 4]: 2.67 ± 0.09 Ed mmol/L
Serum phosphate (mean ± standard deviation) [1, 4]: 2.81 ± 0.25 ED mmol/L
Serum calcium (mean ± standard deviation) [1, 5]: 2.72 ± 0.09 E mmol/L
Serum phosphate (mean ± standard deviation) [1, 5]: 3.05 ± 0.19 Ed mmol/L
Serum calcium (mean ± standard deviation) [1, 6]: 2.72 ± 0.06 E mmol/L
Serum phosphate (mean ± standard deviation) [1, 6]: 3.24 ± 0.34 E mmol/L
Serum calcium (mean ± standard deviation) [1, 7]: 2.61 ± 0.02 E mmol/L
Serum phosphate (mean ± standard deviation) [1, 7]: 2.60 ± 0.32 E mmol/L
Serum calcium (mean ± standard deviation) [1, 8]: 2.57 ± 0.06 e^ mmol/L
Serum phosphate (mean ± standard deviation) [1, 8]: 2.43 ± 0.23 e mmol/L
Serum calcium (mean ± standard deviation) [1, 9]: 2.56 ± 0.09 ^ mmol/L
Serum phosphate (mean ± standard deviation) [1, 9]: 2.05 ± 0.44 mmol/L
Serum calcium (mean ± standard deviation) [1, 10]: 2.45 ± 0.02 ^ mmol/L
Serum phosphate (mean ± standard deviation) [1, 10]: 2.10 ± 0.16 mmol/L
